According to US8778871B2 (Takeda Pharmaceutical Company Limited, priority 2004, dated 2014):
Non-standard residues stand in square brackets, D forms with d. NMeW = CN[C@@H](Cc1c[nH]c2ccccc12)C(=O)O; 2Nal = N[C@@H](Cc1ccc2ccccc2c1)C(=O)O; Arg(Me) = CNC(=N)NCCC[C@H](N)C(=O)O; dNMeY = CN[C@H](Cc1ccc(O)cc1)C(=O)O; Tic = O=C(O)[C@@H]1Cc2ccccc2CN1; 2Thi = N[C@@H](Cc1cccs1)C(=O)O; Nva = CCC[C@H](N)C(=O)O; azaGly = NNC(=O)O

Key:
[1] = Action of reducing testosterone level in blood in mature male rat (1 mM peptide in 50% DMSO, ALZET osmotic pump); type: in vivo; details: 1 mM peptide in 50% DMSO aqueous solution, ALZET osmotic pump s.c., six days
Protocol: The peptide was encapsulated in five ALZET osmotic pump (Model 2001, 0.2 ml of volume, releasing rate 0.001 ml/hr, DURECT Corporation). The ALZET pumps encapsulated with the peptide solution were implanted to dorsal subcutaneous of five male CD (SD) IGS rat at nine weeks age (Charles River Japan, Inc.) anesthesized with ether for one pump to one rat. Separately, for negative controls, the ALZET osmotic pumps encapsulated with distilled water were implanted to five male CD (SD) IGS rat (Charles River Japan, Inc.) The rats were bred for six days under the normal conditions. After weighing, blood was collected by decapitation. To 1 ml of blood, 0.03 ml of aprotinin (Trasylol, Byer) solution containing 0.1 g/ml EDTA 2Na was added. The plasma was isolated by centrifugation at 1,800×g for 25 minutes and collected. The thus obtained plasma, 0.05 ml was effected by radioimmunoassay. (DPC Total Testosterone Kit, Diagnostic Products Corporation) to measure testosterone level in blood of each rat. The value beneath measuring limit of radioimmunoassay (0.04 ng/ml as concentration of plasma) was treated as zero. The mean values for testosterone level of five rats, to which the peptide was given, was calculated and the relative value (percentage) for the mean values of testosterone level of five rats, to which distilled watrer was given, was estimated.

hOT7T175 = target: T1, hOT7T175 (Homo sapiens, UniProt Q969F8, L364H); type: cell-based; details: hOT7T175/CHO, FLIPR, evaluation for 40 seconds after initiation of the reaction
T1 construct: expressed in transfected cells
T1 sequence (Q969F8 whole entry L364H): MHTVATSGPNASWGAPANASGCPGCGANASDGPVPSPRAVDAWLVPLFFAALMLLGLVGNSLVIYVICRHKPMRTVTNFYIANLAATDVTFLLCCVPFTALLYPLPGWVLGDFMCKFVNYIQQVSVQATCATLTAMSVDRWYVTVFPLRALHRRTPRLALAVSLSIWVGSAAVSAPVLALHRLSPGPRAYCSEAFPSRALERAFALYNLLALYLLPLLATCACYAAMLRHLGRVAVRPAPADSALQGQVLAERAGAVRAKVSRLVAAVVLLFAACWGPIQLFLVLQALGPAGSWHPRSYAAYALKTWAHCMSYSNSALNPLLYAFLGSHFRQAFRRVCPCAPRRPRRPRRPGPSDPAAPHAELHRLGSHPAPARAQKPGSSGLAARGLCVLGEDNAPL
Protocol: The intracellular Ca ion level-increasing activity was measured using FLIPR as in TEST EXAMPLE 2.

3-Pyridinepropionyl-D-Trp-Asn-Thr-Phe-AzaGly-Leu-Arg(Me)-Trp-NH2 ({3‑Pyridinepropionyl}-[dW]NTF[azaGly]L[Arg(Me)]W-NH2) [Compound No. 670]
Testosterone level in Blood [1]: 2% | Specific Act. (EC50/MS10 EC50) (hOT7T175): 0.9

6-Aminocaproyl-D-Trp-Asn-Thr-Phe-AzaGly-Leu-Arg(Me)-Trp-NH2 ({6‑Aminocaproyl}-[dW]NTF[azaGly]L[Arg(Me)]W-NH2) [Compound No. 674]
Testosterone level in Blood [1]: 2% | Specific Act. (EC50/MS10 EC50) (hOT7T175): 2

Ac-D-Trp-Asn-Thr-Phe-AzaGly-Leu-Arg(Me)-Trp-NH2 (Ac-[dW]NTF[azaGly]L[Arg(Me)]W-NH2; SMILES CNC(=N)NCCC[C@H](NC(=O)[C@H](CC(C)C)NC(=O)NNC(=O)[C@H](Cc1ccccc1)NC(=O)[C@@H](NC(=O)[C@H](CC(N)=O)NC(=O)[C@@H](Cc1c[nH]c2ccccc12)NC(C)=O)[C@@H](C)O)C(=O)N[C@@H](Cc1c[nH]c2ccccc12)C(N)=O) [Compound No. 666]
Testosterone level in Blood [1]: 2% | Specific Act. (EC50/MS10 EC50) (hOT7T175): 1.1

Ac-D-Trp-D-Trp-Asn-Thr-Phe-AzaGly-Leu-Arg(Me)-Trp-NH2 (Ac-[dW][dW]NTF[azaGly]L[Arg(Me)]W-NH2; SMILES CNC(=N)NCCC[C@H](NC(=O)[C@H](CC(C)C)NC(=O)NNC(=O)[C@H](Cc1ccccc1)NC(=O)[C@@H](NC(=O)[C@H](CC(N)=O)NC(=O)[C@@H](Cc1c[nH]c2ccccc12)NC(=O)[C@@H](Cc1c[nH]c2ccccc12)NC(C)=O)[C@@H](C)O)C(=O)N[C@@H](Cc1c[nH]c2ccccc12)C(N)=O) [Compound No. 663]
Testosterone level in Blood [1]: 2% | Specific Act. (EC50/MS10 EC50) (hOT7T175): 0.8

Ac-D-Tyr-D-Pya(2)-Asn-Thr-Phe-AzaGly-Leu-Arg(Me)-Trp-NH2 [Compound No. 658]
Testosterone level in Blood [1]: 2% | Specific Act. (EC50/MS10 EC50) (hOT7T175): 0.4

Ac-D-Tyr-D-Pya(3)-Asn-Thr-Phe-AzaGly-Leu-Arg(Me)-Trp-NH2 [Compound No. 660]
Testosterone level in Blood [1]: 2% | Specific Act. (EC50/MS10 EC50) (hOT7T175): 1.1

Ac-D-Tyr-D-Pya(4)-Asn-Thr-Phe(4F)-AzaGly-Leu-Arg(Me)-Trp-NH2 [Compound No. 638]
Testosterone level in Blood [1]: 2% | Specific Act. (EC50/MS10 EC50) (hOT7T175): 1.7

Ac-D-Tyr-D-Trp-Asn-Thr-Phe-AzaGly-Leu-Arg(Me2)sym-Trp-NH2 [Compound No. 608]
Testosterone level in Blood [1]: 2% | Specific Act. (EC50/MS10 EC50) (hOT7T175): 2.2

Ac-D-Tyr-D-Trp-Asn-Thr-Phe-AzaGly-Nva-Arg(Me)-Trp-NH2 (Ac-[dY][dW]NTF[azaGly][Nva][Arg(Me)]W-NH2; SMILES CCC[C@H](NC(=O)NNC(=O)[C@H](Cc1ccccc1)NC(=O)[C@@H](NC(=O)[C@H](CC(N)=O)NC(=O)[C@@H](Cc1c[nH]c2ccccc12)NC(=O)[C@@H](Cc1ccc(O)cc1)NC(C)=O)[C@@H](C)O)C(=O)N[C@@H](CCCNC(=N)NC)C(=O)N[C@@H](Cc1c[nH]c2ccccc12)C(N)=O) [Compound No. 677]
Testosterone level in Blood [1]: 2% | Specific Act. (EC50/MS10 EC50) (hOT7T175): 0.3

Ac-D-Tyr-D-Trp-Asn-Thr-Pya(4)-AzaGly-Leu-Arg(Me)-Trp-NH2 [Compound No. 635]
Testosterone level in Blood [1]: 2% | Specific Act. (EC50/MS10 EC50) (hOT7T175): 1.4

Ac-D-Tyr-D-Tyr-D-Trp-Asn-Thr-Phe-AzaGly-Leu-Arg(Me)-Trp-NH2 (Ac-[dY][dY][dW]NTF[azaGly]L[Arg(Me)]W-NH2; SMILES CNC(=N)NCCC[C@H](NC(=O)[C@H](CC(C)C)NC(=O)NNC(=O)[C@H](Cc1ccccc1)NC(=O)[C@@H](NC(=O)[C@H](CC(N)=O)NC(=O)[C@@H](Cc1c[nH]c2ccccc12)NC(=O)[C@@H](Cc1ccc(O)cc1)NC(=O)[C@@H](Cc1ccc(O)cc1)NC(C)=O)[C@@H](C)O)C(=O)N[C@@H](Cc1c[nH]c2ccccc12)C(N)=O) [Compound No. 651]
Testosterone level in Blood [1]: 2% | Specific Act. (EC50/MS10 EC50) (hOT7T175): 0.7

Ac-D-Tyr-NMeTrp-Asn-Thr-Phe-AzaGly-Leu-Arg(Me)-Trp-NH2 (Ac-[dY][NMeW]NTF[azaGly]L[Arg(Me)]W-NH2; SMILES CNC(=N)NCCC[C@H](NC(=O)[C@H](CC(C)C)NC(=O)NNC(=O)[C@H](Cc1ccccc1)NC(=O)[C@@H](NC(=O)[C@H](CC(N)=O)NC(=O)[C@H](Cc1c[nH]c2ccccc12)N(C)C(=O)[C@@H](Cc1ccc(O)cc1)NC(C)=O)[C@@H](C)O)C(=O)N[C@@H](Cc1c[nH]c2ccccc12)C(N)=O) [Compound No. 672]
Testosterone level in Blood [1]: 2% | Specific Act. (EC50/MS10 EC50) (hOT7T175): 2.1

Ac-D-Tyr-Pro-Asn-Thr-Phe-AzaGly-Leu-Arg(Me)-Trp-NH2 (Ac-[dY]PNTF[azaGly]L[Arg(Me)]W-NH2; SMILES CNC(=N)NCCC[C@H](NC(=O)[C@H](CC(C)C)NC(=O)NNC(=O)[C@H](Cc1ccccc1)NC(=O)[C@@H](NC(=O)[C@H](CC(N)=O)NC(=O)[C@@H]1CCCN1C(=O)[C@@H](Cc1ccc(O)cc1)NC(C)=O)[C@@H](C)O)C(=O)N[C@@H](Cc1c[nH]c2ccccc12)C(N)=O) [Compound No. 657]
Testosterone level in Blood [1]: 2% | Specific Act. (EC50/MS10 EC50) (hOT7T175): 1.1

Ac-G[dY][dW]NTF[azaGly]L[Arg(Me)]W-NH2 [Compound No. 649]
Testosterone level in Blood [1]: 2% | Specific Act. (EC50/MS10 EC50) (hOT7T175): 1

Ac-Tyr-D-Tyr-D-Trp-Asn-Thr-Phe-AzaGly-Leu-Arg(Me)-Trp-NH2 (Ac-Y[dY][dW]NTF[azaGly]L[Arg(Me)]W-NH2; SMILES CNC(=N)NCCC[C@H](NC(=O)[C@H](CC(C)C)NC(=O)NNC(=O)[C@H](Cc1ccccc1)NC(=O)[C@@H](NC(=O)[C@H](CC(N)=O)NC(=O)[C@@H](Cc1c[nH]c2ccccc12)NC(=O)[C@@H](Cc1ccc(O)cc1)NC(=O)[C@H](Cc1ccc(O)cc1)NC(C)=O)[C@@H](C)O)C(=O)N[C@@H](Cc1c[nH]c2ccccc12)C(N)=O) [Compound No. 676]
Testosterone level in Blood [1]: 2% | Specific Act. (EC50/MS10 EC50) (hOT7T175): 1.4

Ac-Tyr-Trp-Asn-Thr-Phe-AzaGly-Leu-Arg(Me)-Trp-NH2 (Ac-YWNTF[azaGly]L[Arg(Me)]W-NH2; SMILES CNC(=N)NCCC[C@H](NC(=O)[C@H](CC(C)C)NC(=O)NNC(=O)[C@H](Cc1ccccc1)NC(=O)[C@@H](NC(=O)[C@H](CC(N)=O)NC(=O)[C@H](Cc1c[nH]c2ccccc12)NC(=O)[C@H](Cc1ccc(O)cc1)NC(C)=O)[C@@H](C)O)C(=O)N[C@@H](Cc1c[nH]c2ccccc12)C(N)=O) [Compound No. 664]
Testosterone level in Blood [1]: 6% | Specific Act. (EC50/MS10 EC50) (hOT7T175): 0.6

Ac-Y[dW]NTF[azaGly]L[Arg(Me)]W-NH2 [Compound No. 615]
Testosterone level in Blood [1]: 2% | Specific Act. (EC50/MS10 EC50) (hOT7T175): 0.7

Ac-[dA][dW]NTF[azaGly]L[Arg(Me)]W-NH2 [Compound No. 616]
Testosterone level in Blood [1]: 2% | Specific Act. (EC50/MS10 EC50) (hOT7T175): 1.1

Ac-[dF][dW]NTF[azaGly]L[Arg(Me)]W-NH2 [Compound No. 618]
Testosterone level in Blood [1]: 2% | Specific Act. (EC50/MS10 EC50) (hOT7T175): 1.6

Ac-[dK][dW]NTF[azaGly]L[Arg(Me)]W-NH2 [Compound No. 621]
Testosterone level in Blood [1]: 2% | Specific Act. (EC50/MS10 EC50) (hOT7T175): 1.9

Ac-[dL][dW]NTF[azaGly]L[Arg(Me)]W-NH2 [Compound No. 617]
Testosterone level in Blood [1]: 2% | Specific Act. (EC50/MS10 EC50) (hOT7T175): 2.4

Ac-[dNMeY][dW]NTF[azaGly]L[Arg(Me)]W-NH2 [Compound No. 602]
Testosterone level in Blood [1]: 2% | Specific Act. (EC50/MS10 EC50) (hOT7T175): 2.4

Ac-[dY]WNTF[azaGly]L[Arg(Me)]W-NH2 [Compound No. 623]
Testosterone level in Blood [1]: 2% | Specific Act. (EC50/MS10 EC50) (hOT7T175): 0.6

Ac-[dY][Tic]NTF[azaGly]L[Arg(Me)]W-NH2 [Compound No. 662]
Testosterone level in Blood [1]: 2% | Specific Act. (EC50/MS10 EC50) (hOT7T175): 0.7

Ac-[dY][dA]NTF[azaGly]L[Arg(Me)]W-NH2 [Compound No. 625]
Testosterone level in Blood [1]: 2% | Specific Act. (EC50/MS10 EC50) (hOT7T175): 2.8

Ac-[dY][dE]NTF[azaGly]L[Arg(Me)]W-NH2 [Compound No. 630]
Testosterone level in Blood [1]: 2% | Specific Act. (EC50/MS10 EC50) (hOT7T175): 4.2

Ac-[dY][dF]NTF[azaGly]L[Arg(Me)]W-NH2 [Compound No. 627]
Testosterone level in Blood [1]: 2% | Specific Act. (EC50/MS10 EC50) (hOT7T175): 1.6

Ac-[dY][dK]NTF[azaGly]L[Arg(Me)]W-NH2 [Compound No. 629]
Testosterone level in Blood [1]: 2% | Specific Act. (EC50/MS10 EC50) (hOT7T175): 3.4

Ac-[dY][dL]NTF[azaGly]L[Arg(Me)]W-NH2 [Compound No. 626]
Testosterone level in Blood [1]: 2% | Specific Act. (EC50/MS10 EC50) (hOT7T175): 2.1

Ac-[dY][dW]NTFGL[Arg(Me)]W-NH2 [Compound No. 598]
Testosterone level in Blood [1]: 2% | Specific Act. (EC50/MS10 EC50) (hOT7T175): 0.3

Ac-[dY][dW]NTF[azaGly]LRW-NH2 [Compound No. 600]
Testosterone level in Blood [1]: 2% | Specific Act. (EC50/MS10 EC50) (hOT7T175): 0.3

Ac-[dY][dW]NTF[azaGly]L[Arg(Me)]Y-NH2 [Compound No. 591]
Testosterone level in Blood [1]: 2% | Specific Act. (EC50/MS10 EC50) (hOT7T175): 1.2

Ac-[dY][dW]NTF[azaGly]L[Arg(Me)][2Nal]-NH2 [Compound No. 589]
Testosterone level in Blood [1]: 2% | Specific Act. (EC50/MS10 EC50) (hOT7T175): 2.3

Ac-[dY][dW]NTF[azaGly]L[Arg(Me)][2Thi]-NH2 [Compound No. 590]
Testosterone level in Blood [1]: 2% | Specific Act. (EC50/MS10 EC50) (hOT7T175): 1.4
